Results published in US8637542B2, “Kinase inhibitors and methods of use” (Intellikine, Inc., priority 2008, dated 2014).
pIC50: −log10 of the molar value.

Key:
Type in all cases: biochemical
mTORC = molecular target: T1, mTORC (Homo sapiens, UniProt P42345); assay: In-vitro mTORC inhibition assay
T1 construct: purchased Invitrogen
Method: The compounds described herein can be tested against recombinant mTOR (Invitrogen) in an assay containing 50 mM HEPES, pH 7.5, 1 mM EGTA, 10 mM MgCl2, 2.5 mM, 0.01% Tween, 10 μM ATP (2.5 μCi of […]), and 3 μg/mL BSA. Rat recombinant PHAS-1/4EBP1 (Calbiochem; 2 mg/mL) is used as a substrate. Reactions are terminated by spotting onto nitrocellulose, which is washed with 1M NaCl/1% phosphoric acid (approximately 6 times, 5-10 minutes each). Sheets are dried and the transferred radioactivity quantitated by phosphorimaging.
Other kits or systems for assaying mTOR activity are commercially available. For instance, one can use Invitrogen's LanthaScreen™ Kinase assay to test the inhibitors of mTOR disclosed herein. This assay is a time resolved FRET platform that measures the phosphorylation of GFP labeled 4EBP1 by mTOR kinase. The kinase reaction is performed in a white 384 well microtitre plate. The total reaction volume is 20 ul per well and the reaction buffer composition is 50 mM HEPES pH7.5, 0.01% Polysorbate 20, 1 mM EGTA, 10 mM MnCl2, and 2 mM DTT. In the first step, each well receives 2 ul of test compound in 20% dimethylsulphoxide resulting in a 2% DMSO final concentration. Next, 8 ul of mTOR diluted in reaction buffer is added per well for a 60 ng/ml final concentration. To start the reaction, 10 ul of an ATP/GFP-4EBP1 mixture (diluted in reaction buffer) is added per well for a final concentration of 10 uM ATP and 0.5 uM GFP-4EBP1. The plate is sealed and incubated for 1 hour at room temperature. The reaction is stopped by adding 10 ul per well of a Tb-anti-pT46 4EBP1 antibody/EDTA mixture (diluted in TR-FRET buffer) for a final concentration of 1.3 nM antibody and 6.7 mM EDTA. The plate is sealed, incubated for 1 hour at room temperature, and then read on a plate reader set up for LanthaScreen™ TR-FRET. Data is analyzed and IC50s are generated using GraphPad Prism 5.

PI3K α = molecular target: T2, PI3K α (Homo sapiens, UniProt P42336); assay: In-vitro PI3K α inhibition assay
T2 construct: purchased Upstate
Method: (§1) Class I PI3-Ks can be either purchased (p110α/p85α, p110β/p85α, p110β/p85α from Upstate, and p110γ from Sigma) or expressed as previously described (Knight et al., 2004). IC50 values are measured using either a standard TLC assay for lipid kinase activity (described below) or a high-throughput membrane capture assay. Kinase reactions are performed by preparing a reaction mixture containing kinase, inhibitor (2% DMSO final concentration), buffer (25 mM HEPES, pH 7.4, 10 mM MgCl2), and freshly sonicated phosphatidylinositol ([…]). Reactions are initiated by the addition of ATP containing 10 μCi of γ-32P-ATP to a final concentration 10 or 100 μM and allowed to proceed for 5 minutes at room temperature. For TLC analysis, reactions are then terminated by the addition of 105 μl 1N HCl followed by 160 μl CHCl3:MeOH (1:1). The biphasic mixture is vortexed, briefly centrifuged, and the organic phase is transferred to a new tube using a gel loading pipette tip precoated with CHCl3. This extract is spotted on TLC plates and developed for 3-4 hours in a 65:35 solution of n-propanol:1M acetic acid. The TLC plates are then dried, exposed to a phosphorimager screen (Storm, Amersham), and quantitated. For each compound, kinase activity is measured at 10-12 inhibitor concentrations representing two-fold dilutions from the highest concentration tested (typically, 200 μM).
Other commercial kits or systems for assaying PI3-K activities are available. The commercially available kits or systems can be used to screen for inhibitors and/or agonists of PI3-Ks including but not limited to PI3-Kinase α, β, δ, and γ. An exemplary system is PI3-Kinase (human) HTRF™ Assay from Upstate. […] Briefly, the assay is a time resolved FRET assay that indirectly measures PI3 product formed by the activity of a PI3-K. The kinase reaction is performed in a microtitre plate (e.g., a 384 well microtitre plate). […] The plate is sealed, incubated for 1 hour at room temperature, and then read on an appropriate plate reader. Data is analyzed and IC50s are generated using GraphPad Prism 5.

PI3K β = molecular target: T3, PI3K β (Homo sapiens, UniProt P42338); assay: In-vitro PI3K β inhibition assay
T3 construct: purchased Upstate
Method: as §1, with “The biphasic mixture is vortexed, briefly centrifuged, and the organic phase is transferred to a new tube using a gel loading pipette tip precoated with CHCl3. This extract is spotted on TLC plates and developed for 3-4 hours in a 65:35 solution of n-propanol:1M acetic acid.” left out
(§2) Other commercial kits or systems for assaying PI3-K activities are available. […] The plate is sealed, incubated for 1 hour at room temperature, and then read on an appropriate plate reader. Data is analyzed and IC50s are generated using GraphPad Prism 5.

PI3K δ = molecular target: T4, PI3K δ (Homo sapiens, UniProt O00329); assay: In-vitro PI3K δ inhibition assay
T4 construct: purchased Upstate
Method: as §1, with “The biphasic mixture is vortexed, briefly centrifuged, and the organic phase is transferred to a new tube using a gel loading pipette tip precoated with CHCl3. This extract is spotted on TLC plates and developed for 3-4 hours in a 65:35 solution of n-propanol:1M acetic acid.” left out
as §2

T2 sequence (P42336 whole entry): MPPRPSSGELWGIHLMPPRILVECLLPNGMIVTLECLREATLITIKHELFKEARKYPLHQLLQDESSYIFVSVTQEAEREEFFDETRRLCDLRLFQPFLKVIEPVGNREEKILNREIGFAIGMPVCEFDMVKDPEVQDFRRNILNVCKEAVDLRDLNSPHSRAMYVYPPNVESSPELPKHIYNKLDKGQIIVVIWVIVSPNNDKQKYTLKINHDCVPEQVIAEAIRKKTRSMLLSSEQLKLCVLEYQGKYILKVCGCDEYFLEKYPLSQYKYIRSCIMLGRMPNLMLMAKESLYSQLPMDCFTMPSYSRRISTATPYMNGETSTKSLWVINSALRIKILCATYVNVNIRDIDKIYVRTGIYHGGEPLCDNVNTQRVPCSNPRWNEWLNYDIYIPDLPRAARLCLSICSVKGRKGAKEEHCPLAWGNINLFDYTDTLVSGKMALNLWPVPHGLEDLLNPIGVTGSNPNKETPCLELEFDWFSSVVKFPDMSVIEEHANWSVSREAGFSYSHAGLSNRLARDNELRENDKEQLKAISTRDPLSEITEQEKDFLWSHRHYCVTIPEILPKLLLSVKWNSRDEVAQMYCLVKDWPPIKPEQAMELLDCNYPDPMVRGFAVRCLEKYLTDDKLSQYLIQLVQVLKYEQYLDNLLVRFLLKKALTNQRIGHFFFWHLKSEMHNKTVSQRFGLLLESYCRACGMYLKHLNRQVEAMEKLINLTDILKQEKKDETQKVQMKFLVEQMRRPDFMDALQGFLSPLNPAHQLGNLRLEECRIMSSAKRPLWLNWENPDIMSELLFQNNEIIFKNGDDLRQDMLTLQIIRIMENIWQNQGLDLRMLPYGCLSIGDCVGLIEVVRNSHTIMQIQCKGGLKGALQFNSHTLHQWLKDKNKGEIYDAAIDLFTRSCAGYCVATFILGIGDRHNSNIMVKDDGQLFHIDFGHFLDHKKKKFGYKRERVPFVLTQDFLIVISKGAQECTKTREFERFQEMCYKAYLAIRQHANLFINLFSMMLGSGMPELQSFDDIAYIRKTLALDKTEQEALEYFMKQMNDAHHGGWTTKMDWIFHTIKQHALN
T2 sequence (P27986 whole entry partner): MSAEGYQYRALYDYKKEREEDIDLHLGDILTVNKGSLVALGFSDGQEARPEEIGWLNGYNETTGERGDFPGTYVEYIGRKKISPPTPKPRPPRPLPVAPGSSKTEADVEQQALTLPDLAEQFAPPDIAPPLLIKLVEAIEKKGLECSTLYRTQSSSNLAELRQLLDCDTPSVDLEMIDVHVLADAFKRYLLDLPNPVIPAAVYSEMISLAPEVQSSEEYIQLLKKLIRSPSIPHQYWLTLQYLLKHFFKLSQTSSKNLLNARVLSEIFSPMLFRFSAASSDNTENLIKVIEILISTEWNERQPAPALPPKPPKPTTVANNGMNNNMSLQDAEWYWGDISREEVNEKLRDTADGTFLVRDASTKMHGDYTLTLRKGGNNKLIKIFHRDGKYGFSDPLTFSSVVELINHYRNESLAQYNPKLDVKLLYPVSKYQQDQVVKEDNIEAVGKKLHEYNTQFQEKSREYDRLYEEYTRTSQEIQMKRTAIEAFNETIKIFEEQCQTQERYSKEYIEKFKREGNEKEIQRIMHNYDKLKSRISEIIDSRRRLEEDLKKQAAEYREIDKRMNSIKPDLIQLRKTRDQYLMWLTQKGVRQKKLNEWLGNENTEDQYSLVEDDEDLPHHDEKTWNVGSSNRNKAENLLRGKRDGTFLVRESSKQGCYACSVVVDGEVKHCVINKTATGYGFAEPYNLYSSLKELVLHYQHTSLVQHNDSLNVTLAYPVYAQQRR
T1 sequence (P42345 1360-2549 limits assumed): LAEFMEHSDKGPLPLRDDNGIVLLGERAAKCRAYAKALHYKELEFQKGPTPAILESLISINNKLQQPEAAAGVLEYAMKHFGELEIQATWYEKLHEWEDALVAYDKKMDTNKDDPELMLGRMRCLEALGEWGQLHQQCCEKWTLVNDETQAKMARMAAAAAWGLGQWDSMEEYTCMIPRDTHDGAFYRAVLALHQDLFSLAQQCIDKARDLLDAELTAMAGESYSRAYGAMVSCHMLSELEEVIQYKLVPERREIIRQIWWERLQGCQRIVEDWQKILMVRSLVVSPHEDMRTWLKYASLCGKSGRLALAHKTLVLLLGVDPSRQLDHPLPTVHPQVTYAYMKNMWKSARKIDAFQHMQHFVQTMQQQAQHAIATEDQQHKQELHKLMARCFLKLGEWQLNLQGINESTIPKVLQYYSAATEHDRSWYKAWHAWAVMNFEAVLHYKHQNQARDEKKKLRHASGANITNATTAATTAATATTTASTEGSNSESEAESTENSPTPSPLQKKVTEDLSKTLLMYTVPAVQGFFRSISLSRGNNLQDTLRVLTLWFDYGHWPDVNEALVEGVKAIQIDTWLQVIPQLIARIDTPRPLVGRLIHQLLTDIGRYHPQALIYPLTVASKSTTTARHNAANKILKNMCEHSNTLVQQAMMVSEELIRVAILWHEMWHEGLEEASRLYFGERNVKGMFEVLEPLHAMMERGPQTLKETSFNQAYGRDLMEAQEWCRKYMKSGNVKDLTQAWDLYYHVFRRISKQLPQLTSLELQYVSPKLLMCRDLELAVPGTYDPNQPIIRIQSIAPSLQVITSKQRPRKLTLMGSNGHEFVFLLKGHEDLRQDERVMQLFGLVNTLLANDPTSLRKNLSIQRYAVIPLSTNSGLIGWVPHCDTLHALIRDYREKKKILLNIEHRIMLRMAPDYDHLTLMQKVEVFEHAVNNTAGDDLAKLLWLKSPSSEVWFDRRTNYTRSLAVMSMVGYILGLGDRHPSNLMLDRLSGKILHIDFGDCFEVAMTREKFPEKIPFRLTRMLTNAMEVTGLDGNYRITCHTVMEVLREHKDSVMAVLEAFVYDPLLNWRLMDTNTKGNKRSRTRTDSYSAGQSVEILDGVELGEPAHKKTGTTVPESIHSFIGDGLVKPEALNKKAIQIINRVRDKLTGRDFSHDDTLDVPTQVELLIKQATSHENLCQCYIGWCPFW
T3 sequence (P42338 whole entry): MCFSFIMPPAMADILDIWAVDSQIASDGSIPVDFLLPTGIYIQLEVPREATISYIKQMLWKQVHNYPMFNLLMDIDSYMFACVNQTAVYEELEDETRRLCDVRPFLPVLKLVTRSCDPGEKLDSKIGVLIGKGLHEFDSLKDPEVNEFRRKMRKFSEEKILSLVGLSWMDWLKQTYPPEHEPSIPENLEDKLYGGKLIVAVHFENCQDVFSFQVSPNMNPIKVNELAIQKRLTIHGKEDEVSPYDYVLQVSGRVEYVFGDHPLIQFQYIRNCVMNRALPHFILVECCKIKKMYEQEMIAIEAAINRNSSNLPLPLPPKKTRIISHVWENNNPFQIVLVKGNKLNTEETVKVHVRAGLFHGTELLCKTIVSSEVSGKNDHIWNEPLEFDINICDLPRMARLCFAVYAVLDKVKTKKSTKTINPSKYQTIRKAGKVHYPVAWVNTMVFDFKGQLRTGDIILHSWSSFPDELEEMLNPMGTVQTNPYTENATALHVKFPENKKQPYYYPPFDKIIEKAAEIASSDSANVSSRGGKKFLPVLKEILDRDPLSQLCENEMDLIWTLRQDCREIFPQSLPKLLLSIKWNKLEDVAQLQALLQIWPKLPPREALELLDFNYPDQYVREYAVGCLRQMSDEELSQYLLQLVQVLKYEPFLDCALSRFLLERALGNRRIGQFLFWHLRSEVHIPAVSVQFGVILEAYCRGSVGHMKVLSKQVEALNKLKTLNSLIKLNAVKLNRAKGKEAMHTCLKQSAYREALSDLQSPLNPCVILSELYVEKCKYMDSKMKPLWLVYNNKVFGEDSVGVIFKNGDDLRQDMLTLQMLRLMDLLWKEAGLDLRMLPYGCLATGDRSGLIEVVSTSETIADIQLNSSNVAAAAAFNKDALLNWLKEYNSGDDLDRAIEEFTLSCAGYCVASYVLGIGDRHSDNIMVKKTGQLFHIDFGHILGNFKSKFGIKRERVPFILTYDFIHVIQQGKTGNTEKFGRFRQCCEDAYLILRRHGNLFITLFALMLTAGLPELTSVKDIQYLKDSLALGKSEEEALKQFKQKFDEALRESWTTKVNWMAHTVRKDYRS
T3 sequence (P27986 whole entry partner): as the sequence (P27986 whole entry partner) above

SMILES | pIC50 (mTORC) | pIC50 (PI3K α) | pIC50 (PI3K β) | pIC50 (PI3K δ)
CC(C)n1nc(-c2ccc3onc(N)c3c2)c2c(N)nccc21 [Compound 2] | < 6.00 | < 6.00 |  | 
CC(C)n1nc(-c2ccc3oc(N)nc3c2)c2c(N)nccc21 [Compound 4] | ≥ 6.00 | < 6.00 | < 6.00 | 
CC(C)n1nc(-c2cc3cc(O)ccc3[nH]2)c2c(N)nccc21 [Compound 1] | ≥ 6.00 |  |  | 
CC(C)n1nc(-c2cnc3[nH]ccc3c2)c2c(N)nccc21 [Compound 3] | < 6.00 | < 6.00 | < 6.00 | < 6.00
